Several values for one entry are separate records, joined by “and”; a condition that tells them apart may be missing. Identical values can stand only once. Entries after “also recorded” stand apart in the source; their conditions may differ.
How the values were obtained:
[1] = system: hypertrophy marker MYHCB in H9C2 rat cells; assay: Relative expression of hypertrophy marker MYHCB in H9C2 rat cells after vasopressin ± BAY 60-7550 (real-time PCR); assay type: cell-based
Procedure: FIG. 2: Relative expression of the hypertrophy marker MYHCB in H9C2 rat cells after stimulation by vasopressin±PDE2A inhibitor BAY 60-7550.
The expression of ANP and MYHCB relative to L32 ribosomal protein in H9C2 cells after incubation with vasopressin (0.1 micromol, 1 micromal, 10 micromol) for 72 h is shown. […] (Mean relative expression rE from a duplicate determination).
(§1) The relative expression of PDE2A in H9c2 rat cells is measured by quantifying the mRNA using the real-time polymerase chain reaction. Compared with conventional PCR, the real-time PCR has the advantage of more accurate quantification by introducing an additional, fluorescence-labeled oligonucleotide. This so-called probe contains at the 5′ end the fluorescent dye FAM (6-carboy-fluorescein) and at the 3′ end the fluorescence quencher TAMRA (6-carboxy-tetramethylrhodamine). During the polymerase chain reaction, the fluorescent dye FAM is cleaved off the probe by the 5′-exonuclease activity of the Taq polymerase in the TaqMan PCR, and thus the previously quenched fluorescence signal is obtained. The number of the cycle at which the fluorescence intensity is about 10 standard deviations above the background fluorescence is recorded as the so-called threshold [treshold cyle (Ct value)].
Total RNA is isolated from the H9c2 rat cardiomyocytes from a 6-well (about 4×10^5 cells) using an RNeasy Kit (Qiagen Hilden). 1 μg portions of total RNA per tissue are reacted with 1 unit of DNase I (from Invitrogen) at room temperature for 15 min to remove contamination by genomic DNA. The Dnase I is inactivated by adding 1 μl of EDTA (25 mM) and subsequent heating at 65° C. (10 min).
Subsequently, cDNA synthesis is carried out in the same reaction mixture in accordance with the instruction for the “SUPERSCRIPT-II RT cDNA synthesis kit” (from Invitrogen), and the reaction volume is made up to 200 μl with distilled water. For the PCR, 7.5 μl of primer and probe mixture and 12.5 μl of TaqMan reaction solution (qPCR Mastermix, from Eurogentec) are added to 5 μl portions of the diluted cDNA solution. The final concentration of the primers is 300 nM in each case, and that of the probe is 150 nM. The sequence of the forward and reverse primer for the rat PDE2A is: 5′-[…]-3′ (SEQ ID NO: 3) and 5′-[…]-3′ (SEQ ID NO: 4), and the sequence of the fluorescent probe is 5′-6FAM-[…]-TAMRA-3′ (SEQ ID NO: 5). The sequence of the forward and reverse primer for r-MYHCB is: 5′-[…]-3′ (SEQ ID NO: 6) and 5′-[…]-3′ (SEQ ID NO: 7), and the sequence of the fluorescent probe is 5′-6FAM-[…]-TAMRA-3′ (SEQ ID NO: 8).
The PCR takes place on an ABI Prism SDS-7700 apparatus (from Applied Biosystems) in accordance with the manufacturer's instructions. 40 cycles are carried out in this case. The Ct (see above) which is obtained for the respective gene in the relevant cDNA corresponds to the cycle in which the fluorescence intensity of the liberated probe is about 10 standard deviations above the background signal. A lower Ct value thus means an earlier start of amplification, i.e. the original sample contains more mRNA. To compensate for any variations in the cDNA synthesis, the expression of a so-called “housekeeping gene”, which should always be expressed to the same extent irrespective of the treatment of the cells, is also analyzed in all the investigated samples. L32 ribosomal protein is used to standardize PDE2A expression in H9c2 cells. The sequence of the forward and reverse primer for rat L32 is 5′-[…]-3′ (SEQ ID NO: 9), and 5′-[…]-3′ (SEQ ID NO: 10), and the sequence of the probe is 5′-6FAM-[…]-TAMRA-3′ (SEQ ID NO: 11). The data are analyzed in the following way: the dCt value is calculated for each RNA. The dCt value is the difference between the Ct values for the candidate gene (i.e.: MYHCB or PDE2A) and the Ct value of the housekeeping gene in the respective tissue. […]

[2] = system: intracellular cGMP in H9c2 rat cardiomyocytes; assay: Intracellular cGMP content in H9c2 cells after ANP stimulation (EIA); assay type: cell-based; details: 15 min, FIG. 3
Procedure: (§2) In order to verify that incubation of H9c2 cells with the PDE2A inhibitor BAY 60-7550 also leads to an increase in the intracellular cGMP level and thus has an antihypertrophic effect, the intracellular cGMP content was determined by EIA after stimulation of cGMP synthesis by ANP in the presence of the PDE2A inhibitor BAY 60-7550. […] To verify the in vitro findings, the antihypertrophic effect of the PDE2 inhibitor BAY 60-7550 was investigated in vivo in a mouse hypertrophy model. For this purpose, mice of the C57BL6 strain received subcutaneous administration of 2 mg/kg isoprenaline once a day and, as positive control, 10 mg/kg enalapril administered via the drinking water in addition to the isoprenaline.
FIG. 3: Change in the intracellular cGMP concentration in H9c2 rat cardiomyocytes after stimulation with ANP in the presence of various concentrations of the PDE2A inhibitor BAY 60-7550. The cGMP content in the cells after incubation with ANP and the stated dosages of the PDE2A inhibitor BAY 60-7550 for 15 min is shown.
Determination of the cGMP Content in H9c2 Cells after Preincubation with the PDE2A Inhibitor BAY 60-7550
The intracellular cGMP content in H9c2 cells was determined with the Biotrak (EIA) Immunoassay from Amersham (catalog No. RPN 226) in accordance with the manufacturer's protocol. […] The fluorescence is measured at 450/570 nm in a Tecan Spectrafluor photometer. […]

[3] = system: mice (C57b1/6 strain), isoprenaline-induced cardiac hypertrophy; assay: Mouse isoprenaline hypertrophy model, heart weight/body weight ratio; assay type: in vivo; details: for Effect on heart weight:body weight ratio (HW:BW) (in words): with isoprenaline 2 mg/kg/d s.c.
Procedure: as §2
FIG. 4: Alteration in the heart weight compared with the body weight (HW:BW) by subcutaneous administration of isoprenaline (2 mg/kg/d) and the influence of enalapril as positive control […] in the drinking water) and of the PDE2A inhibitor BAY 60-7550. The heart weight:body weight ratio as a function of the treatment is shown.
Assay of PDE2A inhibitors for anti-hypertrophic effect in vivo:
The antihypertrophic effect of the PDE2A inhibitor BAY 60-7550 is assayed by using the so-called mouse isoprenaline model [ ]. This involves 8 mice (C57b1/6 strain) per dose group receiving subcutaneous administration of isoprenaline at a dose of 2 mg/kg/d for 5 days, while the control group receives a saline solution as vehicle control. As positive control, in addition to the isoprenaline, the ACE inhibitor enalapril was administered in a dose of 10 mg/kg/d via the drinking water to one group, while two further groups received in addition to the isoprenaline the PDE2A inhibitor BAY 60-7550 administered intraperitoneally with a dose of 10 mg/kg/d. As a measure of the degree of cardiac hypertrophy, the heart weight/body weight (HW:BW) ratio is determined after 5 d, and the relation of the effect of the substances to the effect of isoprenaline is found.

[4] = system: PDE2A-mRNA in H9c2 rat cardiomyocytes; assay: Relative expression of PDE2A-RNA in H9c2 cells after arginine-vasopressin (real-time PCR); assay type: cell-based; details: Vasopressin 1 μM, 72 h, triplicate mean, control 159.73
Excerpt: For this purpose, the rat cardiomyocyte cell line H9c2 (ATCC number: CRL-1446) was exposed to a hypertrophic stimulus by arginine-vasopressin which is expressed inter alia in an increased expressed of marker genes for cardiac hypertrophy such as ANP (atrial natriuretic peptide) and MYHCB (myosin heavy chain beta-subunit). An increased expression of the cGMP-hydrolyzing PDE2A is able to reduce the intracellular cGMP level of the cardiomyocytes and thus suppress the antihypertrophic effect of cGMP [3,4]. […]
as §1, with “value)]. […]” for “value)].”

Q: What does the source list for COc1ccc(Cc2nn3c(C(CCCc4ccccc4)C(C)O)nc(C)c3c(=O)[nH]2)cc1OC (stereo not shown) [BAY 60-7550, 2-(3,4-dimethoxybenzyl)-7-[1-(1-hydroxyethyl)-4-phenylbutyl]-5-methylimidazo[5,1-f][1,2,4]triazin-4(3H)-one]?
A: Effect on vasopressin-induced increase of hypertrophy marker gene MYHCB (in words) ([1]; H9c2 cells, vasopressin stimulation, FIG. 2): dose-dependently suppresses the induction of the hypertrophy marker MYHCB by vasopressin; also recorded: dose-dependent suppression of the increase in the hypertrophy marker gene MYHCB; rE (expression of MYHCB relative to L32) ([1]; Vasopressin 1 μM + 0.1 μM BAY 60-7550, 72 h): 9.00 and 15.89; MW (mean rE of MYHCB) ([1]; Vasopressin 1 μM + 0.1 μM BAY 60-7550, duplicate mean, vasopressin alone 17.23): 12.44; MW (mean rE of MYHCB) ([1]; Vasopressin 1 μM + 1 μM BAY 60-7550, duplicate mean, vasopressin alone 17.23): 8.54; rE (expression of MYHCB relative to L32) ([1]; Vasopressin 1 μM + 10 μM BAY 60-7550, 72 h): 4.56 and 3.01; MW (mean rE of MYHCB) ([1]; Vasopressin 1 μM + 10 μM BAY 60-7550, duplicate mean, vasopressin alone 17.23): 3.79; Effect on intracellular cGMP content (in words) [2]: dose-dependently and synergistically increases the intracellular cGMP level; also recorded: dose-dependently increases the intracellular cGMP content; Effect on heart weight:body weight ratio (HW:BW) (in words) ([3]; BAY 60-7550 10 mg/kg i.p., 5 days, two groups, FIG. 4): able to suppress the isoprenaline-induced increase in heart weight almost as well as the positive control enalapril; also recorded: marked reduction in the ratio of the weight of the heart to the body weight

Q: What does the source list for NC(=O)CC[C@@H]1NC(=O)[C@H](Cc2ccccc2)NC(=O)[C@H](Cc2ccc(O)cc2)NC(=O)[C@@H](N)CSSC[C@@H](C(=O)N2CCC[C@H]2C(=O)N[C@@H](CCCN=C(N)N)C(=O)NCC(N)=O)NC(=O)[C@H](CC(N)=O)NC1=O [Vasopressin, arginine-vasopressin, reference compound]?
A: MW (mean rE of PDE2A) [4]: 613.64; rE (expression of MYHCB relative to L32) ([1]; Vasopressin 1 μM alone, 72 h, H9C2 cells): 19.43 and 15.03; MW (mean rE of MYHCB) ([1]; Vasopressin 1 μM alone, 72 h, duplicate mean, control 0.50): 17.23

Q: How did the “Effect on heart weight:body weight ratio (HW:BW) (in words)” value ([3]; enalapril 10 mg/kg via drinking water, positive control) turn out when CCOC(=O)[C@H](CCc1ccccc1)N[C@@H](C)C(=O)N1CCC[C@H]1C(=O)O [enalapril, reference compound] was run?
A: Its value is “marked reduction in the ratio of the weight of the heart to the body weight”.

Q: CC(C)NCC(O)c1ccc(O)c(O)c1 (stereo not shown) [isoprenaline, reference compound] was tested. Which “Effect on heart weight in relation to body weight (in words)” value ([3]; isoprenaline 2 mg/kg/d s.c. alone, hypertrophic stimulus) did it give?
A: The value was “increases the weight of the animal's heart in relation to the body weight”.
